From patent US20260151403A1, “NEK7 DEGRADERS AND METHODS OF USE THEREOF” (Captor Therapeutics S.A., priority 2022, published 2026)

Experiments:
[1] = target: T1, [NEK7]-[compound of formula (I)]-[CRBN/DDB1] complex (Homo sapiens, UniProt Q8TDX7+Q96SW2); assay: AlphaLISA dose response ternary complex formation assay; format: binding; details: 1 μM compound, normalized to maximum signal of Compound 2 (positive control) and DMSO background; for activation at 1 µM: read-out: Normalized AlphaLISA ternary complex average signal at 1 μM molecule
Procedure: The effect of the molecular glue compounds of the invention on the formation of a ternary complex composed of [NEK7]-[compound of formula (I)]-[CRBN/DDB1] was investigated with two methods: AlphaLISA dose response assay or HTRF ternary complex assay.
Two types of protein solution were prepared: • 200 nM biotinylated NEK7, 40 μg/ml AlphaScreen Streptavidin-coated Donor Beads in HBS (10 mM HEPES, 150 mM NaCL, pH 7.4) buffer with 0.1% Tween-20 and 1 mM DTT, • 200 nM 6×His-CRBN/Strep-DDB1, 40 μg/ml AlphaLISA Anti-6×His Acceptor beads in HBS buffer with 0.1% Tween-20 and 1 mM DTT.
The prepared solutions were incubated at room temperature for 30 min and then the solution containing the donor beads was mixed with the solution containing the acceptor beads.
The tested compounds were dispensed onto a white 384-well AlphaPlate 384 SW. DMSO was backfilled to all wells, resulting in a final DMSO content of 2%. Wells containing only DMSO served as background. Next, 10 μl of solution with donor and acceptor beads was added to the wells.
The plate was sealed with transparent film and shaken using a VibroTurbulator for 60 sec at room temperature, level 3. The plate was then spun down shortly (10 s, 1000 rcf, room temperature) and incubated at 25° C. for 30 min.
The read-out was performed with PerkinElmer Enspire Multimode Plate Reader (method for AlphaLISA 384-well low volume, Filterset: λexc=680 nm, λem=615 nm).
The results were analyzed as follows: • 1) an average of luminescence for background signal was calculated and used as a negative control; • 2) average of the maximum measured luminescence for Compound 2 was calculated and used as an internal positive control; • 3) raw luminescence values were normalized against positive and negative controls; • 4) Normalized responses to Compound 2 were determined.

[2] = target: T1, [NEK7]-[compound of formula (I)]-[CRBN/DDB1] complex; assay: HTRF ternary complex assay; format: binding; details: dose-response, 180 min at 25° C.; for EC50: read-out: HTRF ternary complex Average pEC50 by molecule (converted)
Procedure: The effect of the molecular glue compounds of the invention on the formation of a ternary complex composed of [NEK7]-[compound of formula (I)]-[CRBN/DDB1] was investigated.
Mix solution of proteins and reagents was prepared: • 24 nM NEK7, 52.8 nM 6×His-CRBN/Strep-DDB1, 3 nM of Streptavidin-Eu cryptate […] and 6.67 nM of Anti-6×his-d2 […] was prepared in PPI Europium detection buffer (Cisbio) with 1 mM DTT.
The tested compounds in dose-response were dispensed onto a white 384-well low volume plate (Greiner, 784075). DMSO was backfilled to all wells, resulting in a final DMSO content of 0.5%. Wells containing only DMSO served as background.
The plate was sealed with transparent film and shaken using a VibroTurbulator for 60 sec at level 3.
The plate was then spun down shortly (10 s, 1000 rcf) and incubated at 25° C. for 180 min.
The read-out was performed with plate reader (Pherastar, BMG Labtech) in time resolved fluorescence mode. Filterset: TR 337 665 620.
The results were analyzed as follows: • 1) an average of fluorescence for background signal was calculated and used as a negative control; • 2) raw fluorescence values for tested compounds were normalized against negative controls; • 3) saturation curve was fitted to specific binding with Hill slope model; • 4) EC50 and pEC50 values were determined.

NEK7-HiBiT protein = NEK7-HiBiT protein (Homo sapiens, UniProt Q8TDX7); assay: NEK7-HiBiT degradation assay (Nano-Glo HiBiT Lytic Assay) in HEK293 NEK7-HiBiT cells; format: cell-based; details: 24 h, conc. 0.1, 1 and 10 μM tested, concentration of the table values not stated, mean of 3 technical replicates
Procedure: HEK293 NEK7-HiBiT cells were generated using CRISPR-Cas9 system. HEK293 cells were transformed with pSpCas9-BB-2A-Puro v2.0 plasmid carrying gRNA targeting the N-terminus of NEK7 and ssODN template containing the HiBiT tag sequence with flanking homology sequences. Neon Transfection System (Thermo Fisher Scientific) was used for electroporation. HEK293 NEK7-HiBiT cells were cultured with DMEM Glutamax (Gibco) supplemented with 10% heat inactivated FBS (Gibco). After transfection the culture medium was changed to DMEM Glutamax with 10% heat-inactivated FBS and 1% Penicillin-Streptomycin (Biowest) supplemented with Puromycin (2 μg/ml; Invivogen) for clonal selection. In order to isolate single cell clones for further validation and analysis, limiting dilution cloning in 96-well plates was performed. When the single clones reached confluency, HiBiT Lytic Assay (Promega) was performed in order to identify HiBiT positive clones. The clone selected for further studies was verified and validated using genotyping and HiBiT Blotting (Promega).
Selected clone of HEK293 NEK7-HiBiT cells was maintained in the DMEM-Glutamax medium supplemented with 10% of heat-inactivated FBS (Gibco) and 1% of Penicillin-Streptomycin Solution 100x (Biowest) at 37° C., 5% CO2 and subcultured every 2-3 days.
For Nano-Glo HiBiT Lytic Assay HEK293 NEK7-HiBiT cells were seeded at the density 2×10^3 cells in triplicates in the 40 μL of growth medium per single well on 384 well plate (Greiner Bio-One). Compounds or DMSO were added to treatment plates using Echo555 Liquid Handler and incubated at 37° C., 5% CO2 for 24 hours. After incubation 40 μL of Nano-Glo HiBiT Lytic Reagent (prepared according to the manufacturer protocol) were added to 40 μL of the cell culture medium present in each well. The plate content was briefly mixed (460 rpm) on an orbital shaker to ensure cell lysis. The plate was left at RT protected from light for another 10 min to stabilize the luminescent signal. The luminescence signal was measured using CLARIOstar Multimode Plate Reader. Focus and gain were adjusted to DMSO treated cells. The results were calculated as the NEK7-HiBiT % relative to the DMSO control of 3 technical replicates relative to the DMSO control.
HEK293 NEK7-HiBiT cells were treated with the compounds (conc. 0.1, 1 and 10 μM) or DMSO for 24 h. After incubation with compounds NEK7-HiBiT degradation was measured as a luminescence signal using CLARIOstar Multimode Plate reader.
Additionally, compounds reducing NEK7-HiBiT protein level by >=50% at 0.1 μM, were also identified.

Sequence of NEK7-HiBiT protein (Q8TDX7 whole entry): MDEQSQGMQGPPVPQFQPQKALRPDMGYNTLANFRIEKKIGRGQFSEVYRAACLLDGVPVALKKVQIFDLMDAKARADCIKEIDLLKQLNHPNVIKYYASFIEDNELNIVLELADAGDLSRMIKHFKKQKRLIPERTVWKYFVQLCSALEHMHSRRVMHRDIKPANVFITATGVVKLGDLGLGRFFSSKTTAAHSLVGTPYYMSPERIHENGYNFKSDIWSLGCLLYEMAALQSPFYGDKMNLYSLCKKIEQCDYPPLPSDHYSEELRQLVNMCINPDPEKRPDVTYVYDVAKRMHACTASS
Sequence of NEK7-HiBiT protein (Q96SW2 whole entry, further chain): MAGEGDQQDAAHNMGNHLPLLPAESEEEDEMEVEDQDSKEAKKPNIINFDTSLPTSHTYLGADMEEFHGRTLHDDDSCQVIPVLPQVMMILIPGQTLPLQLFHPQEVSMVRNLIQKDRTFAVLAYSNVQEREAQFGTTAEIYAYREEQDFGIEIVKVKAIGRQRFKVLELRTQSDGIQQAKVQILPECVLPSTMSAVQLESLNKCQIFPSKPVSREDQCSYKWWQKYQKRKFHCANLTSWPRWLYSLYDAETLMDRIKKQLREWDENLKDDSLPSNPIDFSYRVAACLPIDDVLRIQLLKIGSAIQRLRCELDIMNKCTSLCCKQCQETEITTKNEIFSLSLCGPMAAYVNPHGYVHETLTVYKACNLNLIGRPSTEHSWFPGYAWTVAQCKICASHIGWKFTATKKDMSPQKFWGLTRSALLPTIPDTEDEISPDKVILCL
Sequence of NEK7-HiBiT protein (Q16531 whole entry partner): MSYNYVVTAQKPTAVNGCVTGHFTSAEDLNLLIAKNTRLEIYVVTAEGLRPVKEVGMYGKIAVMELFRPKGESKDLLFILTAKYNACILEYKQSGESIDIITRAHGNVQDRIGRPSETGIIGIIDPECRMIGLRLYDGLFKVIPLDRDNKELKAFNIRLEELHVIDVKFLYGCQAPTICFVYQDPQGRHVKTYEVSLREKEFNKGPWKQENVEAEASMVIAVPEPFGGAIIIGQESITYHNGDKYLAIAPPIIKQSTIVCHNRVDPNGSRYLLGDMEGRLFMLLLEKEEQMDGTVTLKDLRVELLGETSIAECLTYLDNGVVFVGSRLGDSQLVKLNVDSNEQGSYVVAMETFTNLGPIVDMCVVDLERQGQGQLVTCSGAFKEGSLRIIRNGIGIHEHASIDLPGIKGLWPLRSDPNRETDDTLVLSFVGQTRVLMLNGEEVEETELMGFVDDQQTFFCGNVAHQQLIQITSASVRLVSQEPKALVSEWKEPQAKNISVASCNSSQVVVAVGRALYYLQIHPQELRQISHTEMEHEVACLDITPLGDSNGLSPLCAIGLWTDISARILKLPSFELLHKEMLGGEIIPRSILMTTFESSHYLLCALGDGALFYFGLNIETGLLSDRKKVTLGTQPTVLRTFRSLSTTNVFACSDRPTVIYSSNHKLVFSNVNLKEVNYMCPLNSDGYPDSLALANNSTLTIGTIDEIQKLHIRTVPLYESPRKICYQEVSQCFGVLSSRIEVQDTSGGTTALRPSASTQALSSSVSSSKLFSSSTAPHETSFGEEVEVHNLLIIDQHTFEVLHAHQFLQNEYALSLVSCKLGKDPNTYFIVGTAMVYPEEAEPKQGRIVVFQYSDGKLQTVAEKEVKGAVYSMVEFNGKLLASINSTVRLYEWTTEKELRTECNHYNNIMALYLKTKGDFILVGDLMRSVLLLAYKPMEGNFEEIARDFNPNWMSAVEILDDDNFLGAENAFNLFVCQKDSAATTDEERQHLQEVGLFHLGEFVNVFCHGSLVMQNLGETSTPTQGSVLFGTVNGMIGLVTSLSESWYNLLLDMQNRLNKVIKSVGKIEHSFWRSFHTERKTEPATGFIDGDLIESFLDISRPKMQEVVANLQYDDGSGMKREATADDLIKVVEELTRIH
T1 sequence (Q8TDX7 whole entry): as the sequence (Q8TDX7 whole entry) above
T1 sequence (Q96SW2 whole entry): as the sequence (Q96SW2 whole entry, further chain) above
T1 sequence (Q16531 whole entry partner): as the sequence (Q16531 whole entry partner) above

Compound	Normalized AlphaLISA ternary complex average signal at 1 μM molecule [1]	EC50 [2]	Levels of NEK7-HiBiT Protein (as a % of DMSO control) (NEK7-HiBiT protein)	activation at 1 µM [1]	HTRF ternary complex Average pEC50 by molecule [2]
O=C1CCC(N2Cc3cc(C4CCC(c5ccccc5)CN4)ccc3C2=O)C(=O)N1 (single isomer, unassigned) [32 Isomer 1, 3-(1-oxo-5-(5-phenylpiperidin-2-yl)isoindolin-2-yl)piperidine-2,6-dione]	C (Normalized activity > 10% and <20%)	> 3.16 µM	D (Levels of NEK7-HiBiT Protein ≥ 75%)		
O=C1CCCC(N2Cc3cc(C4CCCCN4)ccc3C2=O)C(=O)N1 (stereo not drawn) [Compound 65, 3-(1-oxo-5-(piperidin-2-yl)isoindolin-2-yl)azepane-2,7-dione]		> 3.16 µM	C (Levels of NEK7-HiBiT Protein > 50% and <75%)	< 10%	
O=C1CCC(N2C(=O)c3ccc(C4CCCCN4)cc3C2=O)C(=O)N1 (stereo not drawn) [Compound 1, 2-(2,6-dioxopiperidin-3-yl)-5-(piperidin-2-yl)isoindoline-1,3-dione]		1 to 3.16 µM	A (Levels of NEK7-HiBiT Protein ≤ 25%)	20 to 80%	
O=C1CCC(N2Cc3c(csc3-c3ccccn3)C2=O)C(=O)N1 (stereo not drawn) [31(2), 3-(4-oxo-1-(pyridin-2-yl)-4H-thieno[3,4-c]pyrrol-5 (6H)-yl)piperidine-2,6-dione]		> 3.16 µM	D (Levels of NEK7-HiBiT Protein ≥ 75%)	< 10%	
O=C1CCC(N2Cc3cc(-c4cc(C(F)(F)F)ccn4)ccc3C2=O)C(=O)N1 (stereo not drawn) [26(2), 3-(1-oxo-5-(4-(trifluoromethyl)pyridin-2-yl)isoindolin-2-yl)piperidine-2,6-dione]		0.316 to 1 µM	C (Levels of NEK7-HiBiT Protein > 50% and <75%)	20 to 80%	
O=C1CCC(N2Cc3cc(C4COCCN4)ccc3C2=O)C(=O)N1 (stereo not drawn) [Compound 61, 3-(5-(morpholin-3-yl)-1-oxoisoindolin-2-yl)piperidine-2,6-dione]		0.1 to 0.316 µM	C (Levels of NEK7-HiBiT Protein > 50% and <75%)	10 to 20%	
O=C1CCCC(N2Cc3cc(-c4ccccn4)ccc3C2=O)C(=O)N1 (stereo not drawn) [29(2), 3-(1-oxo-5-(pyridin-2-yl)isoindolin-2-yl)azepane-2,7-dione]		> 3.16 µM	D (Levels of NEK7-HiBiT Protein ≥ 75%)	< 10%	
O=C1CCC(N2Cc3c(ccc(C4CCCCN4)c3F)C2=O)C(=O)N1 (stereo not drawn) [Compound 22, 3-(4-fluoro-1-oxo-5-(piperidin-2-yl)isoindolin-2-yl)piperidine-2,6-dione]		> 3.16 µM	A (Levels of NEK7-HiBiT Protein ≤ 25%)	< 10%	
CC(C)C1CCC(c2ccc3c(c2)CN(C2CCC(=O)NC2=O)C3=O)NC1 (single isomer, unassigned) [55 Isomer 2, 3-(5-(5-isopropylpiperidin-2-yl)-1-oxoisoindolin-2-yl)piperidine-2,6-dione]	A (Normalized activity > 80%)		B (Levels of NEK7-HiBiT Protein > 25% and ≤50%)		+++ (6.5 > pEC50 > 6.0)
COc1ccnc(-c2ccc3c(c2)CN(C2CCC(=O)NC2=O)C3=O)c1 (stereo not drawn) [27(2), 3-(5-(4-methoxypyridin-2-yl)-1-oxoisoindolin-2-yl)piperidine-2,6-dione]		0.316 to 1 µM	D (Levels of NEK7-HiBiT Protein ≥ 75%)	20 to 80%	
3-(5-((2R,6R)-6-butyltetrahydro-2H-pyran-2-yl)-1-oxoisoindolin-2-yl)piperidine-2,6-dione and 3-(5-((2S,6S)-6-butyltetrahydro-2H-pyran-2-yl)-1-oxoisoindolin-2-yl)piperidine-2,6-dione [69 Isomer 2]	B (Normalized activity > 20% and <80%)		B (Levels of NEK7-HiBiT Protein > 25% and ≤50%)		++++ (7.0 > pEC50 > 6.5)
O=C1CCC(N2C(=O)c3cccc4c(-c5ccccn5)ccc2c34)C(=O)N1 (stereo not drawn) [28(2), 3-(2-oxo-6-(pyridin-2-yl)benzo[cd]indol-1 (2H)-yl)piperidine-2,6-dione]		> 3.16 µM	C (Levels of NEK7-HiBiT Protein > 50% and <75%)	< 10%	
O=C1CCC(N2Cc3cc(C4CCCN4)ccc3C2=O)C(=O)N1 (stereo not drawn) [Compound 6, 3-(1-oxo-5-(pyrrolidin-2-yl)isoindolin-2-yl)piperidine-2,6-dione]		0.316 to 1 µM	A (Levels of NEK7-HiBiT Protein ≤ 25%)	20 to 80%	
CCCCC1CCCC(c2ccc3c(c2)CN(C2CCC(=O)NC2=O)C3=O)N1 (mixture of isomers) [Compound 40, 3-(5-(6-butylpiperidin-2-yl)-1-oxoisoindolin-2-yl)piperidine-2,6-dione]		0.1 to 0.316 µM	A (Levels of NEK7-HiBiT Protein ≤ 25%)	> 80%	
O=C1CCC(N2Cc3cc([C@H]4CCCCN4)ccc3C2=O)C(=O)N1 (stereo partly drawn) [Compound 9, 3-(1-oxo-5-((R)-piperidin-2-yl)isoindolin-2-yl)piperidine-2,6-dione]		0.316 to 1 µM	A (Levels of NEK7-HiBiT Protein ≤ 25%)	> 80%	
O=C1CCC(N2Cc3cc(C4CCCC(C(F)(F)F)N4)ccc3C2=O)C(=O)N1 (stereo not drawn) [Compound 60, 3-(1-oxo-5-(6-(trifluoromethyl)piperidin-2-yl)isoindolin-2-yl)piperidine-2,6-dione]		0.316 to 1 µM	C (Levels of NEK7-HiBiT Protein > 50% and <75%)	< 10%	
